Reference: patent US20200171165A1, “ENHANCED TARGETED DELIVERY OF THERAPEUTIC AGENTS” (Proteogenomics Research Institute for Systems Medicine, priority 2018, published 2020)

Experiments:
mammary tumors (N202) = experiment: IVM ectopic-orthotopic (EO) mammary tumor model, spheroids in dorsal skin window chambers: tumor growth
Description: We used the classic IVM tumor model with modifications (Asaishi et al., 1981; Endrich et al., 1980; Vajkoczy et al., 2000). The mice, usually athymic nude mice (25-30 g body weight), were anesthetized (7.3 mg ketamine hydrochloride and 2.3 mg xylazine per 100 g body weight, intraperitoneal injection) and placed on a heating pad. A titanium frame was placed onto the dorsal skinfold of mice to sandwich the extended double layer of skin. A 15 mm diameter full-thickness circular layer of skin was then excised. The superficial fascia on top of the remaining skin was carefully removed to expose the underlying muscle and subcutaneous tissue which was then covered with another titanium frame with a glass coverslip to form the window chamber. After a recovery period of 1-2 days, tumor spheroids were implanted.
Tumor spheroids were formed by plating 50,000 cells onto 1% agar-coated 96-well non-tissue culture treated flat bottom dishes (20 μl cells in 100 μl medium) and centrifuging 4 times at 2000 rpm for 15 min, rotating the dish after every centrifugation. The cells were incubated an additional 3-7 days (depending on cell type) at 37° C. in 5% CO2 in air to form tight spheroids. BT-474 cells required 500,000 cells in the presence of Matrigel (BD Bioscience, San Diego) (1:1 cell volume dilution) to form spheroids in culture. […]
Tumors were imaged using intravital fluorescence microscopy, as described (Borgstrom et al., 2013; Oh et al., 2007; Oh et al., 2014). Tumor growth was analyzed off-line from the recorded, digital, grayscale 0-to-256 images using Image-Pro Plus (Media Cybernetics, Bethesda, Md.). Tumor growth was determined in 2 ways, by measuring the area with fluorescence signal from the GFP or CFP expressing tumor cells or by quantifying the cumulative fluorescence signal for the tumor over time. Tumor area is measured by counting the number of pixels with a grayscale intensity above 75, thereby making it easier to reliably follow irregularly shaped tumors. The cumulative tumor fluorescence signal was measured by signal summation of all pixels over 75. […]

[1] = test system: HER2/neu spontaneous mammary tumors; experiment: HER2/neu transgenic spontaneous mammary tumor model: survival and toxicity; type: in vivo, mouse; conditions: single IV dose 5 mg/kg
Excerpt: We also performed a pilot efficacy study of hAnnA1-CMD-Pt(II) in a genetically engineered mouse HER2/neu model that develops spontaneous mammary tumors (GuyWebster et al., 1992; Reilly et al., 2000).

## COc1cccc2c1C(=O)c1c(O)c3c(c(O)c1C2=O)C[C@@](O)(C(=O)CO)C[C@@H]3O[C@H]1C[C@H](N)[C@H](O)[C@H](C)O1 [free doxorubicin, doxorubicin]
Mammary tumors (N202); free drug 1 mg/kg
  Tumor response (IVM): no effect
Mammary tumors (N202); free drug 5 mg/kg (near MTD)
  Tumor response (IVM): slowed tumor growth modestly

## CC(=O)O[C@@]12CO[C@@H]1C[C@H](O)[C@@]1(C)C(=O)[C@H](O)C3=C(C)[C@@H](OC(=O)[C@H](O)[C@@H](NC(=O)OC(C)(C)C)c4ccccc4)C[C@@](O)([C@@H](OC(=O)c4ccccc4)[C@H]21)C3(C)C [docetaxel]
Mammary tumors (N202); unconjugated drug 5 mg/kg
  Tumor response: produced less benefit

## N.N.[Cl][Pt][Cl] [cisplatin]
[1]
  Mean extension in survival vs untreated controls: 30 days
